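Interpolation was linear, between the two tested concentrations surrounding the appropriate level; five concentrations were tested over 48 hours in 96-well plates. GI50 = concentration required for 50% inhibition of growth. TGI is the concentration that stops growth completely.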 Bounds are passed on as bounds.

In the first test the test system is HL-60(TB) leukemia. Description: inhibition of tumour cell growth, NCI panel, 48 h.
Consider `CCOC(=O)C(=C=C=C(c1ccccc1)c1ccccc1)C(=O)OCC`, for which the TGI came out at 38.5 µM.
On the same count and under the same terms, as for `Cn1c2ccccc2c2cc(-c3ccccc3)c3c(c21)C(=O)c1ccccc1C3=O`, the figure is 35.9 µM; as for `c1ccc(COc2cccc3ccc[n+](Cc4ccccc4)c23)cc1`, 5.75 µM.
Still for that read-out and setting: as for `CN(C)c1ccc(/C=C(\NC(=O)c2ccccc2)c2nc3ncncc3[nH]2)cc1`, the figure is above 100 µM.
On the same count and under the same terms, the value for `CC1=CC(O)(c2ccc(-c3ccccc3Cl)cc2)OC1=O` (stereo not given) was above 100 µM; that for `CCOC(=O)CC(=O)ON(C)C(C)=O` was above 100 µM.
With `CCc1cc(Cc2cc(CC)c(NC(=O)C(=O)Cc3ccccn3)c(CC)c2Cl)c(Cl)c(CC)c1NC(=O)C(=O)Cc1ccccn1`, the TGI was above 100 µM.
As for `CC(C)OP(=O)(OC(C)C)C(=NCCN=C(NNc1ccc([N+](=O)[O-])cc1)P(=O)(OC(C)C)OC(C)C)NNc1ccc([N+](=O)[O-])cc1`, the TGI is above 100 µM.
Still for that read-out and setting: the value for `COC(OC)C(C)CC(=O)N(C)C` (stereo not given) was above 100 µM; that for `O=S1(=O)OCCOS(=O)(=O)C1Br` was above 100 µM.
Still for that read-out and setting: the value for `CC(C)=Cc1cc(C(=O)Nc2ccc(Cl)c(Cl)c2)nc(N)n1` was above 100 µM.
`C#CC1(O)CCC2C3CCc4cc(Oc5nc(F)nc(-c6c7ccccc7c7sc8ccccc8n67)n5)ccc4C3CC[C@@]21C` (stereo not given in full) returned a TGI above 100 µM.
Same read-out and setting: the value for `CC(=O)/C(=C\c1cccc([N+](=O)[O-])c1)C(=O)Nc1ccccc1C` was 57.9 µM; that for `Clc1ccc(C(c2ccc(Cl)cc2)c2ccccn2)cc1` was 55.8 µM.

The next test concerns SF-295 CNS. As to the kind of experiment: inhibition of tumour cell growth, NCI panel, 48 h.
`CCOC(=O)NC(=O)c1cn(CCCO)c(=O)[nH]c1=O` yielded a TGI above 100 µM.
On the same count and under the same terms, the value for `CCN1c2ccccc2C(C(SC)S(=O)(=O)c2ccc(C)cc2)c2c1[nH]c(=O)n(C)c2=O` (stereo not given) was above 100 µM; that for `COc1ccc(S(=O)(=O)NNS(C)(=O)=O)cc1` was above 100 µM.
On to `Cc1cc(-c2ccc3nc(C4CCOCC4)n(CCOC(F)(F)F)c3c2)cn(C)c1=O`, for which the GI50 was 0.748 µM.
With `CC(=O)OC1COC(n2ccc3cc(Br)c([N+](=O)[O-])cc32)C(OC(C)=O)C1OC(C)=O` (stereo not given), the TGI was 66.7 µM.
`Cn1cnc([N+](=O)[O-])c1Sc1nc2ccccc2[nH]1` came in with a TGI above 100 µM.
In the case of `O=C1c2cc3c(cc2-c2c1c1ccc(F)cc1c(=O)n2CCCNCCO)OCO3`, the GI50 was 0.0224 µM and the TGI was 0.114 µM.
For `COc1ccc([C@H]2[C@@H](F)C(=O)N2c2cc(OC)c(OC)c(OC)c2)cc1F` the same measures were 0.0535 µM and above 100 µM.
Compound `CCCCCCCCC/C=C1\CCC(CN2CCOCC2)C1=O` (stereo not given) had a TGI of 20 µM.
Same read-out and setting: as for `CCCCCCN(CCCCCC)C(=O)Cc1c2n(c3ccccc13)Cc1ccccc1-2`, the figure is above 100 µM.
For `CC(=O)[C@@]12O[C@@H]1CC1C3CCC4=CC(O)CCC4(C)C3CCC12C` (stereo not given in full), the GI50 is 12.2 µM and the TGI came out at 56.5 µM.
In turn, `C/C(=N\NC(=S)NC(CCC(=O)O)C(=O)O)c1ccccn1` (stereo not given) displayed a TGI above 100 µM.
`Brc1ccccc1C1SCc2nc3ccccc3n21` (stereo not given) yielded a TGI of 82.9 µM.
Same read-out and setting: the value for `O=C(/C=C\c1ccc(Cl)c(Cl)c1)c1ccc(Cl)cc1Cl` was 47.1 µM; that for `CCOC(=O)C(=C=C=C(c1ccccc1)c1ccccc1)C(=O)OCC` was 30.6 µM.
For the compound `Cn1c2ccccc2c2cc(-c3ccccc3)c3c(c21)C(=O)c1ccccc1C3=O`, the TGI is 74.4 µM.
For `c1ccc(COc2cccc3ccc[n+](Cc4ccccc4)c23)cc1`, the TGI was determined as 37.9 µM.
The compound `CN(C)c1ccc(/C=C(\NC(=O)c2ccccc2)c2nc3ncncc3[nH]2)cc1` returned a TGI above 100 µM.
For `CC1=CC(O)(c2ccc(-c3ccccc3Cl)cc2)OC1=O` (stereo not given), the TGI was above 100 µM.
`CCOC(=O)CC(=O)ON(C)C(C)=O` registered a TGI above 100 µM.
The same measure, in the same setting: the value for `CCc1cc(Cc2cc(CC)c(NC(=O)C(=O)Cc3ccccn3)c(CC)c2Cl)c(Cl)c(CC)c1NC(=O)C(=O)Cc1ccccn1` was above 100 µM; that for `COC(OC)C(C)CC(=O)N(C)C` (stereo not given) was above 100 µM; that for `O=S1(=O)OCCOS(=O)(=O)C1Br` was above 100 µM.
Same read-out and setting: the value for `CC(C)=Cc1cc(C(=O)Nc2ccc(Cl)c(Cl)c2)nc(N)n1` was above 100 µM; that for `C#CC1(O)CCC2C3CCc4cc(Oc5nc(F)nc(-c6c7ccccc7c7sc8ccccc8n67)n5)ccc4C3CC[C@@]21C` (stereo not given in full) was above 100 µM; that for `CC(=O)/C(=C\c1cccc([N+](=O)[O-])c1)C(=O)Nc1ccccc1C` was above 100 µM.
Take `Clc1ccc(C(c2ccc(Cl)cc2)c2ccccn2)cc1`: the TGI was determined as 43.4 µM.

A further test deals with SNB-19 CNS. Description: inhibition of tumour cell growth, NCI panel, 48 h.
`CCOC(=O)NC(=O)c1cn(CCCO)c(=O)[nH]c1=O`: the TGI is above 100 µM.
The same measure, in the same setting: as for `CCN1c2ccccc2C(C(SC)S(=O)(=O)c2ccc(C)cc2)c2c1[nH]c(=O)n(C)c2=O` (stereo not given), the figure is above 100 µM; as for `COc1ccc(S(=O)(=O)NNS(C)(=O)=O)cc1`, above 100 µM.
The same measure, in the same setting: as for `CC(=O)OC1COC(n2ccc3cc(Br)c([N+](=O)[O-])cc32)C(OC(C)=O)C1OC(C)=O` (stereo not given), the figure is above 100 µM; as for `COc1cc(C2c3cc4c(cc3OC(C)(O)C2C)OCO4)cc(OC)c1OC` (stereo not given), above 100 µM.
On to `O=C1c2cc3c(cc2-c2c1c1ccc(F)cc1c(=O)n2CCCNCCO)OCO3`, for which the GI50 was 0.0431 µM and the TGI is 1.16 µM.
As for `COc1ccc([C@H]2[C@@H](F)C(=O)N2c2cc(OC)c(OC)c(OC)c2)cc1F`, the GI50 was 0.302 µM and the TGI was above 100 µM.
`CCCCCCCCC/C=C1\CCC(CN2CCOCC2)C1=O` (stereo not given): the TGI is 23.5 µM.
The same measure, in the same setting: as for `CCCCCCN(CCCCCC)C(=O)Cc1c2n(c3ccccc13)Cc1ccccc1-2`, the figure is above 100 µM.
`CC(=O)[C@@]12O[C@@H]1CC1C3CCC4=CC(O)CCC4(C)C3CCC12C` (stereo not given in full): the GI50 was 38.8 µM and the TGI is above 100 µM.
In the case of `C/C(=N\NC(=S)NC(CCC(=O)O)C(=O)O)c1ccccn1` (stereo not given), the TGI was above 100 µM.
Same read-out and setting: as for `O=C(/C=C\c1ccc(Cl)c(Cl)c1)c1ccc(Cl)cc1Cl`, the figure is 56.2 µM; as for `CCOC(=O)C(=C=C=C(c1ccccc1)c1ccccc1)C(=O)OCC`, 55.4 µM; as for `Cn1c2ccccc2c2cc(-c3ccccc3)c3c(c21)C(=O)c1ccccc1C3=O`, above 100 µM.
On the same count and under the same terms, as for `c1ccc(COc2cccc3ccc[n+](Cc4ccccc4)c23)cc1`, the figure is above 100 µM; as for `CN(C)c1ccc(/C=C(\NC(=O)c2ccccc2)c2nc3ncncc3[nH]2)cc1`, above 100 µM.
On the same count and under the same terms, as for `CC1=CC(O)(c2ccc(-c3ccccc3Cl)cc2)OC1=O` (stereo not given), the figure is above 100 µM.
Regarding `CCOC(=O)CC(=O)ON(C)C(C)=O`, the TGI is above 100 µM.

Values taken from PubChem BioAssay (NCI).
